Results taken from patent KR20230059409A, “Egf 유래 신규 펩타이드 및 이의 용도” (고려대학교 산학협력단, priority 2021, dated 2023).
No end group written: not given here.

What was measured:
[1] = tested on: 인간유래 중간엽줄기세포(hMSC); test: 3D spheroid stem cell migration test (branch sprouting in collagen matrix); type: cell-based, human; settings: peptide in DMEM 10uM / 100uM, 37℃, 16 h; for extent of stem cell branches extending from 3D spheroid (Fig. 2): compared with EGF group or DMEM only
[2] = tested on: hMSC; test: 2D traction force microscope stem cell migration test; type: cell-based, human; settings: 24 h imaging; for effect on stem cell mobility (conclusion of the test): hMSC

| Substance | length of stem cell branches extending from 3D spheroid, quantified (Fig. 3) [1] | extent of stem cell branches extending from 3D spheroid (Fig. 2) [1] | stem cell migration speed (Fig. 7 and 8) ([2]; hMSC on collagen-coated PA gel with fluorescent beads, compared among EGF, EGP 2, JEP 4 media) | effect on stem cell mobility (conclusion of the test) [2] |
| --- | --- | --- | --- | --- |
| NTKVGYIGEREQYRDLK-NH2 [EGP2] | 줄기세포 가지가 상대적으로 긴 것으로 나타났다 | 줄기세포 가지가 가장 많이 뻗어나간 것을 확인 | 속도가 가장 빠른 것으로 나타났다 | 줄기세포의 이동성을 증진시키는 효과가 있음 |
| YCLHDGVSMYIEALDKYACN [JEP4] | 줄기세포 가지가 상대적으로 긴 것으로 나타났다 | 줄기세포 가지가 가장 많이 뻗어나간 것을 확인 |  | 줄기세포의 이동성을 증진시키는 효과가 있음 |
